The structures appear in SMILES notation. Activity calls are given as the source filed them. The rule behind the calls is not given here.

Assay [1] addresses T1, 2-5A-dependent ribonuclease (Homo sapiens, UniProt Q05823).
T1 sequence (Q05823 whole entry): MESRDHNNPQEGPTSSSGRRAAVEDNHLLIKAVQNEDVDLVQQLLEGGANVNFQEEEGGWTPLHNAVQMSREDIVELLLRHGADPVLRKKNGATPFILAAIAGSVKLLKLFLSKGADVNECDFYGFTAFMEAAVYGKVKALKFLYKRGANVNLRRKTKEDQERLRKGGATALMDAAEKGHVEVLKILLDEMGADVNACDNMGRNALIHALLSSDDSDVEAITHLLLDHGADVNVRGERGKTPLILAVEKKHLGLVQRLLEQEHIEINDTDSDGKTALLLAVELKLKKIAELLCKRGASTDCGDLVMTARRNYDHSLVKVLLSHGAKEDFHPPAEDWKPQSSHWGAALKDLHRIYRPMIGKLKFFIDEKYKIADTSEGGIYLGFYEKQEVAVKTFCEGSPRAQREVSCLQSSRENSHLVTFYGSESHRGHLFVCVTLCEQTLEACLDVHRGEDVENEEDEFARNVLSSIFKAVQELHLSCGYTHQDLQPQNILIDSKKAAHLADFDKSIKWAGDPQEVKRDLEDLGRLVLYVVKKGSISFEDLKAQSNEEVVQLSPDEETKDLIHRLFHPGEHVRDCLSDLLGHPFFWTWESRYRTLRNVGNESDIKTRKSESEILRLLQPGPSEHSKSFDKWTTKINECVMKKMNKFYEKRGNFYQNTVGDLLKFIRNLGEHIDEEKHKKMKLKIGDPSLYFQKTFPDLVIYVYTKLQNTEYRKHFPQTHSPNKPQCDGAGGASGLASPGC
In words: (§1) Activation of human RNase L expressed in Escherichia coli BL21 (DE3) cells assessed as RNA cleavage using Cy5-rC11-UU-C7-BHQ2 as substrate by FRET assay.

For assay [2], the target named is T2, 2-5A-dependent ribonuclease (Homo sapiens) (UniProt Q05823).
T2 sequence (whole entry): T1 sequence (Q05823 whole entry)
Described as §1.

On to `Nc1ncnc2c1ncn2[C@@H]1O[C@H](COP(=O)(O)O[C@@H]2[C@H](O)[C@@H](COP(=O)(O)O[C@@H]3[C@@H](O)[C@@H](COCP(=O)(O)O[C@@H]4[C@H](O)[C@@H](COP(=O)(O)O)O[C@H]4n4cnc5c(N)ncnc54)O[C@H]3n3cnc4c(N)ncnc43)O[C@H]2n2cnc3c(N)ncnc32)[C@@H](O)[C@H]1O`, for which the 50% effective concentration (EC50) in assay [1] is above 1000 nM.

With `Nc1ncnc2c1ncn2[C@@H]1O[C@H](COP(=O)(O)O[C@@H]2[C@H](O)[C@@H](COP(=O)(O)O[C@@H]3[C@H](O)[C@@H](COP(=O)(O)CO[C@@H]4[C@@H](O)[C@@H](COP(=O)(O)O)O[C@H]4n4cnc5c(N)ncnc54)O[C@H]3n3cnc4c(N)ncnc43)O[C@H]2n2cnc3c(N)ncnc32)[C@@H](O)[C@H]1O`, in assay [1], the EC50 was 300 nM. Moreover, in assay [2], the result was Active.

Regarding `Nc1ncnc2c1ncn2[C@@H]1O[C@H](COP(=O)(O)O[C@@H]2[C@H](O)[C@@H](COP(=O)(O)O[C@@H]3[C@H](O)[C@@H](COCP(=O)(O)O[C@@H]4[C@H](O)[C@@H](COP(=O)(O)O)O[C@H]4n4cnc5c(N)ncnc54)O[C@H]3n3cnc4c(N)ncnc43)O[C@H]2n2cnc3c(N)ncnc32)[C@@H](O)[C@H]1O`, the EC50 in assay [1] was above 1000 nM. Further, the result in assay [2] was inactive.

For `Nc1ncnc2c1ncn2[C@@H]1O[C@H](COP(=O)(O)O[C@@H]2[C@H](O)[C@@H](COCP(=O)(O)O[C@@H]3[C@H](O)[C@@H](COP(=O)(O)O[C@@H]4[C@H](O)[C@@H](COP(=O)(O)O)O[C@H]4n4cnc5c(N)ncnc54)O[C@H]3n3cnc4c(N)ncnc43)O[C@H]2n2cnc3c(N)ncnc32)[C@@H](O)[C@H]1O`, the EC50 in assay [1] turned out to be 300 nM. Besides, the outcome in assay [2] was inactive.

`Nc1ncnc2c1ncn2[C@@H]1O[C@H](COP(=O)(O)O[C@H]2[C@H](O)[C@@H](COCP(=O)(O)O[C@@H]3[C@H](O)[C@@H](COP(=O)(O)O[C@@H]4[C@H](O)[C@@H](COP(=O)(O)O)O[C@H]4n4cnc5c(N)ncnc54)O[C@H]3n3cnc4c(N)ncnc43)O[C@H]2n2cnc3c(N)ncnc32)[C@@H](O)[C@H]1O`: the EC50 in assay [1] was above 1000 nM.

With `Nc1ncnc2c1ncn2[C@@H]1O[C@H](COP(=O)(O)O[C@@H]2[C@H](O)[C@@H](COP(=O)(O)CO[C@H]3[C@H](O)[C@@H](COP(=O)(O)O[C@@H]4[C@H](O)[C@@H](COP(=O)(O)O)O[C@H]4n4cnc5c(N)ncnc54)O[C@H]3n3cnc4c(N)ncnc43)O[C@H]2n2cnc3c(N)ncnc32)[C@@H](O)[C@H]1O`, the EC50 in assay [1] is above 1000 nM.

As to `Nc1ncnc2c1ncn2[C@@H]1O[C@H](COCP(=O)(O)O[C@@H]2[C@H](O)[C@@H](COP(=O)(O)O[C@@H]3[C@H](O)[C@@H](COP(=O)(O)O[C@@H]4[C@H](O)[C@@H](COP(=O)(O)O)O[C@H]4n4cnc5c(N)ncnc54)O[C@H]3n3cnc4c(N)ncnc43)O[C@H]2n2cnc3c(N)ncnc32)[C@@H](O)[C@H]1O`, the EC50 in assay [1] stood at 15 nM. Moreover, in assay [2], the outcome was Active.

For the compound `Nc1ncnc2c1ncn2[C@@H]1O[C@H](COP(=O)(O)CO[C@H]2[C@H](O)[C@@H](COP(=O)(O)O[C@@H]3[C@H](O)[C@@H](COP(=O)(O)O[C@@H]4[C@H](O)[C@@H](COP(=O)(O)O)O[C@H]4n4cnc5c(N)ncnc54)O[C@H]3n3cnc4c(N)ncnc43)O[C@H]2n2cnc3c(N)ncnc32)[C@@H](O)[C@H]1O`, in assay [1], the EC50 is 1000 nM. Also, in assay [2], the result was Active.

For the compound `Nc1ncnc2c1ncn2[C@@H]1O[C@H](COCP(=O)(O)O[C@@H]2[C@H](O)[C@@H](COP(=O)(O)O[C@@H]3[C@H](O)[C@@H](COP(=O)(O)O[C@@H]4[C@H](O)[C@@H](COP(=O)(O)O)O[C@H]4n4cnc5c(N)ncnc54)O[C@H]3n3cnc4c(N)ncnc43)O[C@H]2n2cnc3c(N)ncnc32)[C@H](O)[C@H]1O`, the concentration giving a half-maximal response (EC50) in assay [1] amounted to 4.2 nM. Moreover, the result in assay [2] was Active.

In the case of `Nc1ncnc2c1ncn2[C@@H]1O[C@H](COP(=O)(O)O[C@@H]2[C@H](O)[C@@H](COP(=O)(O)O[C@@H]3[C@H](O)[C@@H](COP(=O)(O)O[C@@H]4[C@H](O)[C@@H](COP(=O)(O)O)O[C@H]4n4cnc5c(N)ncnc54)O[C@H]3n3cnc4c(N)ncnc43)O[C@H]2n2cnc3c(N)ncnc32)[C@@H](O)[C@H]1O`, the EC50 in assay [1] was 17 nM.

For `Nc1ncnc2c1ncn2[C@@H]1O[C@H](COP(=O)(O)O[C@@H]2[C@H](O)[C@@H](COP(=O)(O)O[C@@H]3[C@H](O)[C@@H](COP(=O)(O)O[C@@H]4[C@H](O)[C@@H](COCP(=O)(O)O)O[C@H]4n4cnc5c(N)ncnc54)O[C@H]3n3cnc4c(N)ncnc43)O[C@H]2n2cnc3c(N)ncnc32)[C@@H](O)[C@H]1O`, in assay [1], the EC50 is 53 nM.

Regarding `Nc1ncnc2c1ncn2[C@@H]1O[C@H](COP(=O)(O)O[C@@H]2[C@H](O)[C@@H](COP(=O)(O)O[C@H]3[C@H](O)[C@@H](COCP(=O)(O)O[C@@H]4[C@H](O)[C@@H](COP(=O)(O)O)O[C@H]4n4cnc5c(N)ncnc54)O[C@H]3n3cnc4c(N)ncnc43)O[C@H]2n2cnc3c(N)ncnc32)[C@@H](O)[C@H]1O`, the EC50 in assay [1] was above 1000 nM.

For the compound `Nc1ncnc2c1ncn2[C@@H]1O[C@H](COP(=O)(O)O[C@@H]2[C@@H](O)[C@@H](COCP(=O)(O)O[C@@H]3[C@H](O)[C@@H](COP(=O)(O)O[C@@H]4[C@H](O)[C@@H](COP(=O)(O)O)O[C@H]4n4cnc5c(N)ncnc54)O[C@H]3n3cnc4c(N)ncnc43)O[C@H]2n2cnc3c(N)ncnc32)[C@@H](O)[C@H]1O`, in assay [1], the concentration giving a half-maximal response (EC50) is 1000 nM. In assay [2], the result was Active.

`Nc1ncnc2c1ncn2[C@@H]1O[C@H](COP(=O)(O)CO[C@@H]2[C@H](O)[C@@H](COP(=O)(O)O[C@@H]3[C@H](O)[C@@H](COP(=O)(O)O[C@@H]4[C@H](O)[C@@H](COP(=O)(O)O)O[C@H]4n4cnc5c(N)ncnc54)O[C@H]3n3cnc4c(N)ncnc43)O[C@H]2n2cnc3c(N)ncnc32)[C@@H](O)[C@H]1O`: in assay [1], the EC50 amounted to 200 nM. Besides, the result in assay [2] was Active.

In the case of `Nc1ncnc2c1ncn2[C@@H]1O[C@H](COCP(=O)(O)O[C@@H]2[C@H](O)[C@@H](COP(=O)(O)O[C@@H]3[C@H](O)[C@@H](COP(=O)(O)O[C@@H]4[C@H](O)[C@@H](COP(=O)(O)O)O[C@H]4n4cnc5c(N)ncnc54)O[C@H]3n3cnc4c(N)ncnc43)O[C@H]2n2cnc3c(N)ncnc32)[C@@H](O)[C@@H]1O`, the EC50 in assay [1] came out at 6.5 nM. Moreover, the result in assay [2] was Active.

With `Nc1ncnc2c1ncn2[C@@H]1O[C@H](COP(=O)(O)CO[C@@H]2[C@@H](O)[C@@H](COP(=O)(O)O[C@@H]3[C@H](O)[C@@H](COP(=O)(O)O[C@@H]4[C@H](O)[C@@H](COP(=O)(O)O)O[C@H]4n4cnc5c(N)ncnc54)O[C@H]3n3cnc4c(N)ncnc43)O[C@H]2n2cnc3c(N)ncnc32)[C@@H](O)[C@H]1O`, the EC50 in assay [1] was above 1000 nM.

`Nc1ncnc2c1ncn2[C@@H]1O[C@H](COP(=O)(O)O[C@@H]2[C@H](O)[C@@H](COP(=O)(O)O[C@@H]3[C@H](O)[C@@H](COP(=O)(O)CO[C@H]4[C@H](O)[C@@H](COP(=O)(O)O)O[C@H]4n4cnc5c(N)ncnc54)O[C@H]3n3cnc4c(N)ncnc43)O[C@H]2n2cnc3c(N)ncnc32)[C@@H](O)[C@H]1O`: in assay [1], the EC50 was above 1000 nM.

For `Nc1ncnc2c1ncn2[C@@H]1O[C@H](COP(=O)(O)O[C@@H]2[C@H](O)[C@@H](COP(=O)(O)CO[C@@H]3[C@@H](O)[C@@H](COP(=O)(O)O[C@@H]4[C@H](O)[C@@H](COP(=O)(O)O)O[C@H]4n4cnc5c(N)ncnc54)O[C@H]3n3cnc4c(N)ncnc43)O[C@H]2n2cnc3c(N)ncnc32)[C@@H](O)[C@H]1O`, the EC50 in assay [1] was above 1000 nM.

As to `Nc1ncnc2c1ncn2[C@@H]1O[C@H](COP(=O)(O)O[C@@H]2[C@H](O)[C@@H](COP(=O)(O)O[C@@H]3[C@H](O)[C@@H](COP(=O)(O)O[C@@H]4[C@@H](O)[C@@H](COCP(=O)(O)O)O[C@H]4n4cnc5c(N)ncnc54)O[C@H]3n3cnc4c(N)ncnc43)O[C@H]2n2cnc3c(N)ncnc32)[C@@H](O)[C@H]1O`, the concentration for a half-maximal effect (EC50) in assay [1] was 300 nM. In addition, the outcome in assay [2] was Active.

For the compound `Nc1ncnc2c1ncn2[C@@H]1O[C@H](COP(=O)(O)O[C@@H]2[C@H](O)[C@@H](COP(=O)(O)O[C@@H]3[C@H](O)[C@@H](COP(=O)(O)O[C@H]4[C@H](O)[C@@H](COCP(=O)(O)O)O[C@H]4n4cnc5c(N)ncnc54)O[C@H]3n3cnc4c(N)ncnc43)O[C@H]2n2cnc3c(N)ncnc32)[C@@H](O)[C@H]1O`, the EC50 in assay [1] is 1000 nM. The outcome in assay [2] was Active.

Turning to `Nc1ncnc2c1ncn2[C@@H]1O[C@H](COP(=O)(O)O[C@@H]2[C@H](O)[C@@H](COP(=O)(O)CO[C@@H]3[C@H](O)[C@@H](COP(=O)(O)O[C@@H]4[C@H](O)[C@@H](COP(=O)(O)O)O[C@H]4n4cnc5c(N)ncnc54)O[C@H]3n3cnc4c(N)ncnc43)O[C@H]2n2cnc3c(N)ncnc32)[C@@H](O)[C@H]1O`, the 50% effective concentration (EC50) in assay [1] was above 1000 nM.

Take `Nc1ncnc2c1ncn2[C@@H]1O[C@H](COP(=O)(O)O[C@@H]2[C@H](O)[C@@H](COP(=O)(O)O[C@@H]3[C@H](O)[C@@H](COP(=O)(O)CO[C@@H]4[C@H](O)[C@@H](COP(=O)(O)O)O[C@H]4n4cnc5c(N)ncnc54)O[C@H]3n3cnc4c(N)ncnc43)O[C@H]2n2cnc3c(N)ncnc32)[C@@H](O)[C@H]1O`: in assay [1], the concentration giving a half-maximal response (EC50) is above 1000 nM.

As a reminder, the EC50 is the concentration needed to bring the measured effect to its halfway point.

Source of the values: ChEMBL document CHEMBL2057064, “Activation of human RNase L by 2'- and 5'-O-methylphosphonate-modified oligoadenylates” (Bioorg Med Chem Lett, 2012).
